Measurements taken from patent US20230075521A1, “RESVERATROL PHARMACEUTICAL COMPOSITIONS AND METHODS OF USE THEREOF” (priority 2021, published 2023).
Several values for one entry are separate records, joined by “and”; a condition that tells them apart may be missing. Equal values may be shown once.

Test system: serum cytokines and chemokines
Test: Serum cytokine and chemokine levels (48-Plex ProcartaPlex, Luminex)
Assay type: in vivo, 3×Tg-AD mouse
Conditions: 50 mg/kg oral, 9 months
Protocol: At study endpoints (age 15 months for sub-chronic study, age 13 months for long-term study), mice were anaesthetized with isoflurane and blood was collected by transcardial puncture. Blood was stored on ice and then centrifuged at 10,000×g at 4° C. for 10 min to collect serum and stored at −80° C. until use. The brain was then extracted and quickly dissected on ice to collect prefrontal cortex (PFC), hippocampus, entorhinal cortex (ERC), and cerebellum, which were immediately frozen in liquid nitrogen. The samples were stored at −80° C. until processed for RNA or protein extraction. For each mouse, brain regions from one hemisphere were used for RNA preparation and qPCR and sections from the other hemisphere were used for protein work including ELISAs.
Human Aβ1-42, Aβ1-40, phosphorylated tau Ser 396, phosphorylated tau Thr181, and total tau were measured in brain tissue by enzyme linked immuno-sorbent assay (ELISA; Invitrogen by Thermo) and normalized to total protein. All the kits were used as per the manufacturer's instructions and measured using the EnVision® multimode plate reader (Perkin Elmer). Serum and brain tissue protein extracts were analyzed for cytokine and chemokine levels using the Immune Monitoring 48-Plex Mouse ProcartaPlex™ Panel (Invitrogen by Thermo) according to manufacturer's standard protocol and read using Luminex xMAP (multi-analyte profiling) technology.

Compound: Oc1ccc(/C=C/c2cc(O)cc(O)c2)cc1 [RSV, (trans-)resveratrol]
- BAFF serum level, change vs vehicle (female 3×Tg-AD mice): 22.01 pg/mL
- G-CSF serum level, change vs vehicle (female 3×Tg-AD mice): -0.68 pg/mL
- IFNg serum level, change vs vehicle (female 3×Tg-AD mice): 1.06 pg/mL
- IL-1b serum level, change vs vehicle (female 3×Tg-AD mice): 0.80 pg/mL
- IL-2RA serum level, change vs vehicle (female 3×Tg-AD mice): -71.13 pg/mL
- IL-3 serum level, change vs vehicle (female 3×Tg-AD mice): 0.15 pg/mL
- IL-5 serum level, change vs vehicle (female 3×Tg-AD mice): 0.05 pg/mL
- IL-6 serum level, change vs vehicle (female 3×Tg-AD mice): -10.05 pg/mL
- IL-9 serum level, change vs vehicle (female 3×Tg-AD mice): 13.83 pg/mL
- IL-10 serum level, change vs vehicle (female 3×Tg-AD mice): -8.54 pg/mL
- IL-12p70 serum level, change vs vehicle (female 3×Tg-AD mice): 0.15 pg/mL
- IL-13 serum level, change vs vehicle (female 3×Tg-AD mice): 15.44 pg/mL
- IL-15/IL-15R serum level, change vs vehicle (female 3×Tg-AD mice): 0.51 pg/mL
- IL-17A serum level, change vs vehicle (female 3×Tg-AD mice): -5.14 pg/mL
- IL-18 serum level, change vs vehicle (female 3×Tg-AD mice): -74.10 pg/mL
- IL-19 serum level, change vs vehicle (female 3×Tg-AD mice): -17.31 pg/mL
- IL-22 serum level, change vs vehicle (female 3×Tg-AD mice): -2.84 pg/mL
- IL-23 serum level, change vs vehicle (female 3×Tg-AD mice): 16.41 pg/mL
- IL-25/IL-17 serum level, change vs vehicle (female 3×Tg-AD mice): -12.62 pg/mL
- IL-27 serum level, change vs vehicle (female 3×Tg-AD mice): 0.92 pg/mL
- IL-28 serum level, change vs vehicle (female 3×Tg-AD mice): 5.70 pg/mL
- IL-33 serum level, change vs vehicle (female 3×Tg-AD mice): -4.36 pg/mL
- IP-10 serum level, change vs vehicle (female 3×Tg-AD mice): -9.75 pg/mL
- KC serum level, change vs vehicle (female 3×Tg-AD mice): -41.09 pg/mL
- LIF serum level, change vs vehicle (female 3×Tg-AD mice): -1.86 pg/mL
- LIX serum level, change vs vehicle (female 3×Tg-AD mice): 1701.00 pg/mL
- MCP-1 serum level, change vs vehicle (female 3×Tg-AD mice): -43.64 pg/mL
- MCP-3 serum level, change vs vehicle (female 3×Tg-AD mice): -212.20 pg/mL
- MIP-1a serum level, change vs vehicle (female 3×Tg-AD mice): 3.71 pg/mL
- MIP-1b serum level, change vs vehicle (female 3×Tg-AD mice): 0.17 pg/mL
- MIP-2 serum level, change vs vehicle (female 3×Tg-AD mice): -7.86 pg/mL
- RANTES serum level, change vs vehicle (female 3×Tg-AD mice): -9.09 pg/mL
- TNFa serum level, change vs vehicle (female 3×Tg-AD mice): -2.67 pg/mL
- sRANKL serum level, change vs vehicle (female 3×Tg-AD mice): -0.58 pg/mL
- Eotaxin serum level, change vs vehicle (female 3×Tg-AD mice, 50 mg/kg): -3162 ± 1165 pg/mL and -3162.00 pg/mL
- Leptin serum level, change vs vehicle (female 3×Tg-AD mice, 50 mg/kg): -33707 ± 9226 pg/mL and -33707.0 pg/mL
- BAFF serum level, change vs vehicle (male 3×Tg-AD mice): -44.06 pg/mL
- Eotaxin serum level, change vs vehicle (male 3×Tg-AD mice): 943.10 pg/mL
- G-CSF serum level, change vs vehicle (male 3×Tg-AD mice): -5.14 pg/mL
- IFNg serum level, change vs vehicle (male 3×Tg-AD mice): -0.66 pg/mL
- IL-1b serum level, change vs vehicle (male 3×Tg-AD mice): -5.86 pg/mL
- IL-2RA serum level, change vs vehicle (male 3×Tg-AD mice): -21.16 pg/mL
- IL-5 serum level, change vs vehicle (male 3×Tg-AD mice): 8.72 pg/mL
- IL-6 serum level, change vs vehicle (male 3×Tg-AD mice): -60.32 pg/mL
- IL-9 serum level, change vs vehicle (male 3×Tg-AD mice): -9.66 pg/mL
- IL-10 serum level, change vs vehicle (male 3×Tg-AD mice): 2.25 pg/mL
- IL-12p70 serum level, change vs vehicle (male 3×Tg-AD mice): -13.72 pg/mL
- IL-13 serum level, change vs vehicle (male 3×Tg-AD mice): -72.28 pg/mL
- IL-15/IL-15R serum level, change vs vehicle (male 3×Tg-AD mice): -11.93 pg/mL
- IL-17A serum level, change vs vehicle (male 3×Tg-AD mice): -6.64 pg/mL
- IL-18 serum level, change vs vehicle (male 3×Tg-AD mice): -415.10 pg/mL
- IL-19 serum level, change vs vehicle (male 3×Tg-AD mice): -23.06 pg/mL
- IL-23 serum level, change vs vehicle (male 3×Tg-AD mice): -12.74 pg/mL
- IL-25/IL-17 serum level, change vs vehicle (male 3×Tg-AD mice): -235.80 pg/mL
- IL-28 serum level, change vs vehicle (male 3×Tg-AD mice): -44.41 pg/mL
- IL-33 serum level, change vs vehicle (male 3×Tg-AD mice): 107.60 pg/mL
- IP-10 serum level, change vs vehicle (male 3×Tg-AD mice): -47.95 pg/mL
- KC serum level, change vs vehicle (male 3×Tg-AD mice): -90.17 pg/mL
- LIF serum level, change vs vehicle (male 3×Tg-AD mice): -8.06 pg/mL
- LIX serum level, change vs vehicle (male 3×Tg-AD mice): -6715.00 pg/mL
- Leptin serum level, change vs vehicle (male 3×Tg-AD mice): -1768.00 pg/mL
- MIP-1a serum level, change vs vehicle (male 3×Tg-AD mice): 4.01 pg/mL
- MIP-1b serum level, change vs vehicle (male 3×Tg-AD mice): -6.40 pg/mL
- RANTES serum level, change vs vehicle (male 3×Tg-AD mice): -24.75 pg/mL
- TNFa serum level, change vs vehicle (male 3×Tg-AD mice): -0.08 pg/mL
- VEGF-A serum level, change vs vehicle (male 3×Tg-AD mice): -17.68 pg/mL
- sRANKL serum level, change vs vehicle (male 3×Tg-AD mice): 4.06 pg/mL
- IL-3 serum level, change vs vehicle (male 3×Tg-AD mice, 50 mg/kg): -1.53 ± 0.26 pg/mL and -1.53 pg/mL
- IL-22 serum level, change vs vehicle (male 3×Tg-AD mice, 50 mg/kg): -23.37 ± 5.2 pg/mL and -23.37 pg/mL
- MIP-2 serum level, change vs vehicle (male 3×Tg-AD mice, 50 mg/kg): -16.16 ± 5.95 pg/mL and -16.16 pg/mL
